Measured values: patent US20060069132A1, “Azolecarboxamide herbicides” (priority 2004, published 2006)

How the values were obtained:
wild oat = experiment: Test B postemergence herbicide test; format: in vivo, Avena fatua; conditions: postemergence
Summary of the method: (§1)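 Treated at 2-leaf (paddy) or 1–4-leaf, 2–18 cm (postemergence); greenhouse 13–15 d; visual score vs control, 0 none to 100 complete control; dash = not tested.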

corn = experiment: Test B pre-/postemergence herbicide test; format: in vivo, Zea mays; conditions: for Corn plant response rating: postemergence
Summary of the method: (§2)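 Plants compared with untreated controls 13–15 days post-treatment and given a visual 0–100 injury score. Applications: preemergence to seeds; postemergence at 1- to 4-leaf (2–18 cm); paddy species flooded, 2-leaf stage. Vehicle non-phytotoxic, surfactant included.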

barnyardgrass [1] = experiment: Test B flooded paddy test; format: in vivo, Echinochloa crus-galli; conditions: 1000 g ai/ha, scale 0 to 100 (0 no effect, 100 complete control)
Summary of the method: (§3)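 After treating 2-leaf paddy plants or 2–18 cm postemergence plants (1 to 4 leaves) with formulated chemical, researchers kept them in a greenhouse for 13–15 days. Effects were judged visually versus controls: 0 indicates none, 100 total control.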

large crabgrass [2] = experiment: Test B pre-/postemergence herbicide test; format: in vivo, Digitaria sanguinalis; conditions: for Crabgrass, Large plant response rating: postemergence
Summary of the method: as §2

velvetleaf [3] = experiment: Test A pre-/postemergence herbicide test; format: in vivo, Abutilon theophrasti
Summary of the method: (§4)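 Plants are held in greenhouse about ten days after treatment, then compared with untreated controls and scored 0 (no effect) to 100 (complete control). Preemergence dosing is a directed soil spray on sown sandy loam; postemergence dosing is spray to runoff at 2–10 cm height.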

[4] = test system: small flower umbrella sedge; experiment: Test B flooded paddy test; format: in vivo, Cyperus difformis; conditions: 1000 g ai/ha, scale 0 to 100 (0 no effect, 100 complete control)
Summary of the method: as §3

redroot pigweed = experiment: Test A pre-/postemergence herbicide test; format: in vivo, Amaranthus retroflexus
Summary of the method: as §4

barnyardgrass [5] = experiment: Test A pre-/postemergence herbicide test; format: in vivo, Echinochloa crus-galli
Summary of the method: as §4

velvetleaf [6] = experiment: Test B pre-/postemergence herbicide test; format: in vivo, Abutilon theophrasti; conditions: for Velvetleaf plant response rating: postemergence
Summary of the method: as §2

barnyardgrass [7] = experiment: Test B pre-/postemergence herbicide test; format: in vivo, Echinochloa crus-galli; conditions: for Barnyardgrass plant response rating: postemergence
Summary of the method: (§5)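 Flooded paddy rice and barnyardgrass were treated at the 2-leaf stage; upland plantings received compound either on sown seed or on 1- to 4-leaf seedlings. All were kept 13–15 days in a greenhouse and scored visually, 0–100, relative to untreated plants.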

morningglory [8] = experiment: Test A pre-/postemergence herbicide test; format: in vivo, Ipomoea spp.
Summary of the method: as §4

large crabgrass [9] = experiment: Test A pre-/postemergence herbicide test; format: in vivo, Digitaria sanguinalis
Summary of the method: as §4

giant foxtail [10] = experiment: Test B pre-/postemergence herbicide test; format: in vivo, Setaria faberi; conditions: for Foxtail, Giant plant response rating: postemergence
Summary of the method: as §2

ducksalad = experiment: Test B flooded paddy test; format: in vivo, Heteranthera limosa; conditions: 1000 g ai/ha, scale 0 to 100 (0 no effect, 100 complete control)
Summary of the method: as §3

pigweed = experiment: Test B pre-/postemergence herbicide test; format: in vivo, Amaranthus retroflexus; conditions: for Pigweed plant response rating: postemergence
Summary of the method: as §2

giant foxtail [11] = experiment: Test A pre-/postemergence herbicide test; format: in vivo, Setaria faberi
Summary of the method: as §4

lambsquarters = experiment: Test B pre-/postemergence herbicide test; format: in vivo, Chenopodium album; conditions: for Lambsquarters plant response rating: postemergence
Summary of the method: as §2

Surinam grass = experiment: Test B pre-/postemergence herbicide test; format: in vivo, Urochloa decumbens; conditions: for Surinam Grass plant response rating: postemergence
Summary of the method: as §2

morningglory [12] = experiment: Test B pre-/postemergence herbicide test; format: in vivo, Ipomoea coccinea; conditions: for Morningglory plant response rating: postemergence
Summary of the method: as §5

rice = experiment: Test B flooded paddy test; format: in vivo, Oryza sativa; conditions: 1000 g ai/ha, scale 0 to 100 (0 no effect, 100 complete control)
Summary of the method: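 Formulated test chemicals went onto postemergence plants measuring 2 to 18 cm, at one to four leaves. For the paddy assay, species had reached two leaves. Scoring took place 13–15 days later by eye, relative to untreated plants, using 0 for no effect up to 100 for full control.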

blackgrass = experiment: Test B postemergence herbicide test; format: in vivo, Alopecurus myosuroides; conditions: postemergence
Summary of the method: as §3

cocklebur = experiment: Test B pre-/postemergence herbicide test; format: in vivo, Xanthium strumarium; conditions: for Cocklebur plant response rating: postemergence
Summary of the method: as §5

wheat = experiment: Test B postemergence herbicide test; format: in vivo, Triticum aestivum; design: key to Wheat plant response rating: 0 = no effect, 100 = complete control; conditions: postemergence
Summary of the method: as §1

[13] = 125 g ai/ha, visual rating, scale 0 (no effect) to 100 (complete control)
[14] = 500 g ai/ha, scale 0 to 100, 0 is no effect, 100 is complete control
[15] = 125 g ai/ha, 0 = no effect, 100 = complete control, preemergence
[16] = 500 g ai/ha, visual rating, 0 = no effect, 100 = complete control, preemergence
[17] = Postemergence, 125 g ai/ha, 0 to 100 scale, 0 no effect, 100 complete control
[18] = Postemergence, 500 g ai/ha, 0 to 100 scale, 0 no effect, 100 complete control
[19] = preemergence, 125 g ai/ha, visual injury, 0 to 100 scale (0 no effect, 100 complete control)
[20] = preemergence, 500 g ai/ha, visual injury, 0 to 100 scale (0 no effect, 100 complete control)

CC(=NO)c1cccc(NC(=O)c2cc(C(C)(C)C)n[nH]2)c1 [Compound 311]
Oat, Wild plant response rating (wild oat; [13]): 0 | Oat, Wild plant response rating (wild oat; [14]): 0 | Corn plant response rating (0 to 100 scale) (corn; [15]): 0 | Corn plant response rating (corn; [13]): 0 | Plant response rating, Corn (corn; [16]): 0 | Corn plant response rating (corn; [14]): 0 | Barnyardgrass plant response rating (barnyardgrass [1]): 50 | Crabgrass, Large plant response rating (0 to 100 scale) (large crabgrass [2]; [15]): 0 | Crabgrass, Large plant response rating (large crabgrass [2]; [13]): 0 | Plant response rating, Crabgrass, Large (large crabgrass [2]; [16]): 0 | Crabgrass, Large plant response rating (large crabgrass [2]; [14]): 0 | Velvetleaf plant response rating (velvetleaf [3]; [17]): 0 | Velvetleaf plant response rating (velvetleaf [3]; [18]): 10 | Velvetleaf plant response rating (velvetleaf [3]; [19]): 0 | Velvetleaf plant response rating (velvetleaf [3]; [20]): 0 | Sedge, Umbrella plant response rating [4]: 30 | Pigweed plant response rating (redroot pigweed; [17]): 0 | Pigweed plant response rating (redroot pigweed; [18]): 0 | Pigweed plant response rating (redroot pigweed; [19]): 0 | Pigweed plant response rating (redroot pigweed; [20]): 0 | Barnyardgrass plant response rating (barnyardgrass [5]; [17]): 0 | Barnyardgrass plant response rating (barnyardgrass [5]; [18]): 10 | Barnyardgrass plant response rating (barnyardgrass [5]; [19]): 0 | Barnyardgrass plant response rating (barnyardgrass [5]; [20]): 0 | Velvetleaf plant response rating (velvetleaf [6]; [13]): 0 | Plant response rating, Velvetleaf (velvetleaf [6]; [16]): 0 | Velvetleaf plant response rating (velvetleaf [6]; [14]): 0 | Barnyardgrass plant response rating (0 to 100 scale) (barnyardgrass [7]; [15]): 0 | Barnyardgrass plant response rating (barnyardgrass [7]; [13]): 0 | Plant response rating, Barnyardgrass (barnyardgrass [7]; [16]): 0 | Barnyardgrass plant response rating (barnyardgrass [7]; [14]): 0 | Morningglory plant response rating (morningglory [8]; [17]): 0 | Morningglory plant response rating (morningglory [8]; [18]): 0 | Morningglory plant response rating (morningglory [8]; [19]): 0 | Morningglory plant response rating (morningglory [8]; [20]): 0 | Crabgrass, Large plant response rating (large crabgrass [9]; [17]): 0 | Crabgrass, Large plant response rating (large crabgrass [9]; [18]): 10 | Crabgrass, Large plant response rating (large crabgrass [9]; [19]): 0 | Crabgrass, Large plant response rating (large crabgrass [9]; [20]): 0 | Foxtail, Giant plant response rating (0 to 100 scale) (giant foxtail [10]; [15]): 0 | Foxtail, Giant plant response rating (giant foxtail [10]; [13]): 0 | Plant response rating, Foxtail, Giant (giant foxtail [10]; [16]): 0 | Foxtail, Giant plant response rating (giant foxtail [10]; [14]): 0 | Ducksalad plant response rating (ducksalad): 60 | Pigweed plant response rating (0 to 100 scale) (pigweed; [15]): 0 | Pigweed plant response rating (pigweed; [13]): 0 | Plant response rating, Pigweed (pigweed; [16]): 0 | Pigweed plant response rating (pigweed; [14]): 0 | Foxtail, Giant plant response rating (giant foxtail [11]; [17]): 0 | Foxtail, Giant plant response rating (giant foxtail [11]; [18]): 0 | Foxtail, Giant plant response rating (giant foxtail [11]; [19]): 0 | Foxtail, Giant plant response rating (giant foxtail [11]; [20]): 0 | Lambsquarters plant response rating (0 to 100 scale) (lambsquarters; [15]): 0 | Lambsquarters plant response rating (lambsquarters; [13]): 0 | Plant response rating, Lambsquarters (lambsquarters; [16]): 0 | Lambsquarters plant response rating (lambsquarters; [14]): 0 | Surinam Grass plant response rating (0 to 100 scale) (Surinam grass; [15]): 0 | Surinam Grass plant response rating (Surinam grass; [13]): 0 | Plant response rating, Surinam Grass (Surinam grass; [16]): 0 | Surinam Grass plant response rating (Surinam grass; [14]): 0 | Morningglory plant response rating (0 to 100 scale) (morningglory [12]; [15]): 0 | Morningglory plant response rating (morningglory [12]; [13]): 0 | Plant response rating, Morningglory (morningglory [12]; [16]): 0 | Morningglory plant response rating (morningglory [12]; [14]): 0 | Rice plant response rating (rice): 60 | Blackgrass plant response rating (blackgrass; [13]): 0 | Blackgrass plant response rating (blackgrass; [14]): 0 | Cocklebur plant response rating (0 to 100 scale) (cocklebur; [15]): 0 | Cocklebur plant response rating (cocklebur; [13]): 0 | Plant response rating, Cocklebur (cocklebur; [16]): 0 | Cocklebur plant response rating (cocklebur; [14]): 0 | Wheat plant response rating (wheat; [13]): 0 | Wheat plant response rating (wheat; [14]): 0
